3 molecules from patent US20190381127A1, “COMBINATION THERAPY WITH A6, CHEMOTHERAPEUTIC AGENTS, RADIATION THERAPY, OR A COMBINATION THEREOF FOR THE TREATMENT OF CANCER” (Splash Pharmaceuticals, Inc., priority 2016, published 2019) can be followed below.

In experiment [1] the test system is HEY/C2 (DDP resistant) cells. Briefly: CCK-8 cytotoxicity of DDP/PTX with or without A6. In kind it is cell-based. Particulars: 72 hours. The method, then: The cells were plated in 96-well plates as described and incubated overnight. […] The CCK-8 assay described herein was performed to access cytotoxicity of DDP/PTX.
In the next experiment the test system is A2780/CP cells. Briefly: CCK-8 cytotoxicity, A6 plus DDP. The class given is cell-based, human. The method, then: Study Conditions. Drugs: […] Drug exposure time: 1 hour; Cell line: […] Media: RPMI 1640 plus 10% FBS containing 1 mM penicillin/streptomycin; Cytotoxicity Assays: CCK-8 (Cell Counting Kit 8-Dojindo Molecular Technologies). Tissue culture plates containing 96-well plates were seeded with 4000 cells in 100 μl of media per well. The wells on rows A-[…] cells, while the wells on rows E-[…]/CP cells. […] After 1 h, increasing concentrations of DDP were added to triplicate wells in 100 μl medium. […] The cells were then allowed to grow for 96 h following which the plates were assayed for relative cell growth with the CCK-8 assay. CCK-8 assay. Five μl of CCK-8 stain was added to each well and the plate was incubated at 37° C. incubator for 4 h. The plate was read with a microplate reader at a wavelength of 450 nm. (See FIGS. 5A-5D and FIG. 6). The assay was performed using triplicate wells for each DDP concentration. The data in the tables below is the optical density in the well which is a function of the number of live cells remaining at the end of the 96 h growth period.

In another experiment the test system is IGROV-1/CP cells. Briefly: CCK-8 cytotoxicity, A6 plus DDP. In kind it is cell-based, human. The method, then:
Study Conditions. Drugs: […] Drug exposure time: 1 hour; Cell line: IGROV-1 and its DDP-resistant subline IGROV-1/CP; Media: RPMI 1640 plus 10% FBS containing 1 mM penicillin/streptomycin; Cytotoxicity Assays: CCK-8 (Cell Counting Kit 8—Dojindo Molecular Technologies). Tissue culture plates containing 96-well plates were seeded with 4000 cells in 100 μl of media per well. The wells on rows A-D were seeded with IGROV-1 cells, while the wells on rows E-H were seeded with IGROV-1/CP cells. […] After 1 h, increasing concentrations of DDP were added to triplicate wells in […] medium. […] The cells were then allowed to grow for 96 h following which the plates were assayed for relative cell growth with the CCK-8 assay. CCK-8 assay. […] of CCK-8 stain was added to each well and the plate was incubated at 37° C. incubator for 4 h. The plate was read with a microplate reader at a wavelength of 450 nm. (See FIGS. 7A-7D and FIG. 8). The assay was performed using triplicate wells for each DDP concentration. The data in the tables below is the optical density in the well which is a function of the number of live cells remaining at the end of the 96 h growth period.

The subject of experiment [2] is U87MG human glioma cells. Briefly: Intracranial glioma xenograft. The class given is in vivo, BALB/c (nu/nu) mice.
Description: (§1) Glioblastoma: In animal models of glioblastoma, U87MG human glioma cells were implanted subcutaneously or intracranially in BALB/c (nu/nu) mice and the animals were divided into different treatment groups. […] In this study the effects of cisplatin were also examined.
Experiment [3] has as its system U87MG human glioma cells. Briefly: Subcutaneous glioma xenograft. The class given is in vivo, BALB/c (nu/nu) mice.
Description: as §1
Experiment [4] concerns the target T1, CD44 on B16-F10 melanoma cells (UniProt P15379 23-778).
T1 sequence (looked up): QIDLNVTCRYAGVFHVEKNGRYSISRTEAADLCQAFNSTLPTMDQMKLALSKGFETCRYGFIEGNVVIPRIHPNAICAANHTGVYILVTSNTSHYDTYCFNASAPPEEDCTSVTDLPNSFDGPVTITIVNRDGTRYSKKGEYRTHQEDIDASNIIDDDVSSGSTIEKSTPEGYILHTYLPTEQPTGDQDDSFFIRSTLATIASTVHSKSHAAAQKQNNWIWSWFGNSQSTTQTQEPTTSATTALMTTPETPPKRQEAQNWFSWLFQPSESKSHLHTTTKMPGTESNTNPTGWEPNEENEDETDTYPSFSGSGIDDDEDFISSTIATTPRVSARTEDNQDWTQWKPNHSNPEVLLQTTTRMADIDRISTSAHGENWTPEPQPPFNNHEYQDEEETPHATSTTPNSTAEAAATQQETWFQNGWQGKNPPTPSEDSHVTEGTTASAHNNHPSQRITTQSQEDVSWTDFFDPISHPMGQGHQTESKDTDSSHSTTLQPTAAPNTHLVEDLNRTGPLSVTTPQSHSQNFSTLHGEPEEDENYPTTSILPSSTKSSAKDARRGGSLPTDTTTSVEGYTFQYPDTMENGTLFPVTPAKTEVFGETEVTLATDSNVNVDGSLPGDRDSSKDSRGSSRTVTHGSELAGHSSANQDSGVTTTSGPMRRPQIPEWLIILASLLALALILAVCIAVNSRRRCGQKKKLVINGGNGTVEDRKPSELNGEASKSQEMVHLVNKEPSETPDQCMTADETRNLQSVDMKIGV
Briefly: cell-based or functional assay.

Consider `CC(=O)O[C@H]1C(=O)[C@@]2(C)[C@H]([C@H](OC(=O)c3ccccc3)[C@]3(O)C[C@H](OC(=O)[C@H](O)[C@@H](NC(=O)c4ccccc4)c4ccccc4)C(C)=C1C3(C)C)[C@]1(OC(C)=O)CO[C@@H]1C[C@@H]2O` [paclitaxel, reference compound], for which the “resistance of HEY/C2 cells compared to HEY cells” value in experiment [1] is “resisted to paclitaxel”.
With `N.N.[Cl][Pt][Cl]` [cisplatin, reference compound], the “resistance of the cells to DDP” value was “not very resistant” in the experiment on A2780/CP cells and “appeared not to be resistant” with IGROV-1/CP cells. Moreover, in experiment [1], the “IC50 in HEY/C2 cells compared to HEY cells” value is recorded as “about 7 fold”. The “inhibition of tumor growth” value in the experiment with U87MG human glioma cells [2] was determined as 82%. Moreover, the “inhibition of subcutaneous tumor growth” value with U87MG human glioma cells [3] was found to be 53%.
Regarding Ac-KPSSPPEE-NH2 [A6 peptide (Ac-KPSSPPEE-NH2)], the “IC50 for A6 inhibition of chemotaxis in B16-F10 cells” value in experiment [4] amounted to 29 nM.
